Reference: ChEMBL document CHEMBL3046614, “Overexpression of the sterol 14α-demethylase gene (MgCYP51) in Mycosphaerella graminicola isolates confers a novel azole fungicide sensitivity phenotype” (Pest Manag Sci, 2012)
Values after ≈ are worked out from the molar mass of the structure shown. Active and inactive are the calls of the source. The calls are words filed in the database; no cut-off is given here.

Legend:
[1] = system: Zymoseptoria tritici; assay: (§1) Fungicidal activity against Zymoseptoria tritici isolate TAG74-3 with 120 bp insertion expressing CYP51 variant with combination of L50S, S188N, I381V, deltaY459/G460 and N513K mutations inoculated on compound pre-treated wheat cultivar Riband seedlings assessed as fungal DNA level at doses > 1/16 recommended field rate measured 21 days post fungal inoculation; type: functional, organism-based
[2] = system: Zymoseptoria tritici; assay: as §1, with “OP7” for “TAG74-3”; type: functional, organism-based
[3] = system: Zymoseptoria tritici; assay: as §1, with “pycnidia formation” for “fungal DNA level”; type: functional, organism-based
[4] = system: Zymoseptoria tritici; assay: as §1, with “OP7” for “TAG74-3”, “pycnidia formation” for “fungal DNA level”; type: functional, organism-based
[5] = system: Zymoseptoria tritici; assay: as §1, with “pycnidia formation” for “fungal DNA level”, “28.13 ppm” for “doses > 1/16 recommended field rate”; type: functional, organism-based
[6] = system: Zymoseptoria tritici; assay: as §1, with “OP7” for “TAG74-3”, “pycnidia formation” for “fungal DNA level”, “28.13 ppm” for “doses > 1/16 recommended field rate”; type: functional, organism-based
[7] = system: Zymoseptoria tritici; assay: as §1, with “OP7” for “TAG74-3”, “28.13 ppm” for “doses > 1/16 recommended field rate”; type: functional
[8] = system: Zymoseptoria tritici; assay: as §1, with “28.13 ppm” for “doses > 1/16 recommended field rate”; type: functional
[9] = system: Zymoseptoria tritici; assay: as §1, with “OP6 without” for “TAG74-3 with”, “28.13 ppm” for “doses > 1/16 recommended field rate”; type: functional
[10] = system: Zymoseptoria tritici; assay: as §1, with “R10-13 without” for “TAG74-3 with”, “28.13 ppm” for “doses > 1/16 recommended field rate”; type: functional
[11] = system: Zymoseptoria tritici; assay: Fungicidal activity against Zymoseptoria tritici isolate TAG1-18 with 120 bp insertion expressing CYP51 variant with combination of L50S, S188N, I381V, deltaY459/G460 and N513K mutations assessed as fungal growth inhibition; type: functional, organism-based
[12] = system: Zymoseptoria tritici; assay: Fungicidal activity against Zymoseptoria tritici isolate OP6 without 120 bp insertion expressing CYP51 variant with combination of L50S, S188N, I381V, deltaY459/G460 and N513K mutations assessed as fungal growth inhibition; type: functional, organism-based
[13] = system: Zymoseptoria tritici; assay: Fungicidal activity against Zymoseptoria tritici isolate R10-13 without 120 bp insertion expressing CYP51 variant with combination of L50S, S188N, I381V, deltaY459/G460 and N513K mutations assessed as fungal growth inhibition; type: functional, organism-based
[14] = system: Zymoseptoria tritici; assay: Fungicidal activity against Zymoseptoria tritici isolate R03-29 without 120 bp insertion expressing CYP51 variant with combination of L50S, S188N, I381V, deltaY459/G460 and N513K mutations assessed as fungal growth inhibition; type: functional, organism-based
[15] = system: Zymoseptoria tritici; assay: Fungicidal activity against Zymoseptoria tritici isolate IPO323 without 120 bp insertion expressing wild type CYP51 assessed as fungal growth inhibition; type: functional, organism-based
[16] = system: Zymoseptoria tritici; assay: Fungicidal activity against Zymoseptoria tritici isolate TAG74-3 with 120 bp insertion expressing CYP51 variant with combination of L50S, S188N, I381V, deltaY459/G460 and N513K mutations assessed as fungal growth inhibition; type: functional, organism-based
[17] = system: Zymoseptoria tritici; assay: Fungicidal activity against Zymoseptoria tritici isolate OP7 with 120 bp insertion expressing CYP51 variant with combination of L50S, S188N, I381V, deltaY459/G460 and N513K mutations assessed as fungal growth inhibition; type: functional, organism-based
[18] = system: Zymoseptoria tritici; assay: Fungicidal activity against Zymoseptoria tritici isolate R03-54 without 120 bp insertion expressing CYP51 variant with combination of L50S, S188N, I381V, deltaY459/G460 and N513K mutations assessed as fungal growth inhibition; type: functional, organism-based
[19] = system: Zymoseptoria tritici; assay: as §1, with “OP7” for “TAG74-3”, “pycnidia formation” for “fungal DNA level”, “39.06 ppm” for “doses > 1/16 recommended field rate”; type: functional, organism-based
[20] = system: Zymoseptoria tritici; assay: as §1, with “R10-13 without” for “TAG74-3 with”, “39.06 ppm” for “doses > 1/16 recommended field rate”; type: functional
[21] = system: Zymoseptoria tritici; assay: Fungicidal activity against Zymoseptoria tritici isolate V18 with 120 bp insertion expressing CYP51 variant with combination of L50S, S188N, I381V, deltaY459/G460 and N513K mutations assessed as fungal growth inhibition; type: functional, organism-based
[22] = system: Zymoseptoria tritici; assay: as §1, with “OP6 without” for “TAG74-3 with”, “39.06 ppm” for “doses > 1/16 recommended field rate”; type: functional
[23] = system: Zymoseptoria tritici; assay: as §1, with “39.06 ppm” for “doses > 1/16 recommended field rate”; type: functional
[24] = system: Zymoseptoria tritici; assay: as §1, with “OP7” for “TAG74-3”, “39.06 ppm” for “doses > 1/16 recommended field rate”; type: functional
[25] = system: Zymoseptoria tritici; assay: as §1, with “pycnidia formation” for “fungal DNA level”, “39.06 ppm” for “doses > 1/16 recommended field rate”; type: functional, organism-based

CC1(C)CCC(Cc2ccc(Cl)cc2)C1(O)Cn1cncn1 (stereo not drawn) [METCONAZOLE]
Activity [1]: Active | Activity [2]: Active | Activity [3]: Active | Activity [4]: Active | Activity [5]: inactive | Activity [6]: inactive | Activity [7]: 5674 pg | Activity [8]: 1600 pg | Activity [9]: 65 pg | Activity [10]: 106 pg | EC50 [11]: 0.602 µg/mL | EC50 [12]: 0.051 µg/mL | EC50 [13]: 0.097 µg/mL | EC50 [14]: 0.032 µg/mL | EC50 [15]: < 0.0002 µg/mL | EC50 [16]: 1.39 µg/mL | EC50 [17]: 0.821 µg/mL

O=C(Nc1ccccc1-c1ccc(Cl)cc1)c1cccnc1Cl [BOSCALID]
EC50 [11]: 0.976 µg/mL | EC50 [12]: 0.841 µg/mL | EC50 [18]: 0.766 µg/mL | EC50 [14]: 0.21 µg/mL | EC50 [15]: 0.554 µg/mL (≈ 1.61 µM) | EC50 [16]: 0.719 µg/mL | EC50 [17]: 0.808 µg/mL

Fc1ccc([C@]2(Cn3cncn3)O[C@H]2c2ccccc2Cl)cc1 [EPOXICONAZOLE]
Activity [1]: Active | Activity [2]: Active | Activity [3]: Active | Activity [4]: Active | Activity [19]: inactive | Activity [20]: 400 pg | EC50 [11]: 0.911 µg/mL | EC50 [21]: 0.759 µg/mL | EC50 [12]: 0.085 µg/mL | EC50 [13]: 0.091 µg/mL | EC50 [18]: 0.092 µg/mL | EC50 [14]: 0.067 µg/mL | EC50 [15]: 0.0015 µg/mL (≈ 0.00455 µM) | Activity [22]: 14 pg | Activity [23]: 9284 pg | Activity [24]: 1600 pg | EC50 [16]: 1.41 µg/mL | EC50 [17]: 0.819 µg/mL | Activity [25]: inactive

OC(Cc1ccccc1Cl)(Cn1cncn1)C1(Cl)CC1 (stereo not drawn) [PROTHIOCONAZOLE-DESTHIO]
EC50 [11]: 0.12 µg/mL | EC50 [21]: 0.126 µg/mL | EC50 [12]: 0.0126 µg/mL | EC50 [13]: 0.0111 µg/mL | EC50 [18]: 0.0055 µg/mL | EC50 [14]: 0.0091 µg/mL | EC50 [15]: 0.00187 µg/mL (≈ 0.00599 µM) | EC50 [16]: 0.221 µg/mL | EC50 [17]: 0.135 µg/mL

CN(C/C=C/C#CC(C)(C)C)Cc1cccc2ccccc12 [TERBINAFINE]
EC50 [11]: 0.053 µg/mL | EC50 [21]: 0.053 µg/mL | EC50 [12]: 0.048 µg/mL | EC50 [13]: 0.082 µg/mL | EC50 [14]: 0.063 µg/mL | EC50 [15]: 0.047 µg/mL (≈ 0.161 µM) | EC50 [16]: 0.061 µg/mL | EC50 [17]: 0.045 µg/mL

CCCN(CCOc1c(Cl)cc(Cl)cc1Cl)C(=O)n1ccnc1 [PROCHLORAZ]
EC50 [11]: 0.294 µg/mL | EC50 [21]: 0.239 µg/mL | EC50 [12]: 0.019 µg/mL | EC50 [13]: 0.049 µg/mL | EC50 [18]: 0.025 µg/mL | EC50 [14]: 0.077 µg/mL | EC50 [15]: 0.015 µg/mL (≈ 0.0398 µM) | EC50 [16]: 0.624 µg/mL | EC50 [17]: 0.229 µg/mL

CC(C)(C)C(O)(CCc1ccc(Cl)cc1)Cn1cncn1 (stereo not drawn) [TEBUCONAZOLE]
EC50 [11]: 7.81 µg/mL | EC50 [21]: 15.4 µg/mL | EC50 [12]: 1.24 µg/mL | EC50 [13]: 2.34 µg/mL | EC50 [18]: 1.5 µg/mL | EC50 [14]: 2.7 µg/mL | EC50 [15]: 0.041 µg/mL (≈ 0.133 µM) | EC50 [16]: 20.7 µg/mL | EC50 [17]: 8.22 µg/mL
